Where two headings read alike, the source gives them in different places.
Key:
[1] = test system: Podosphaera xanthii (powdery mildew); test: in vitro leaf disc assay on cucumber cotyledons; assay type: cell-based
[2] = test system: Botrytis cinerea; test: in vitro mycelial disc assay; assay type: cell-based
[3] = test system: Fusarium graminearum; assay type: cell-based
[4] = test system: cucumber; conditions: in vivo
Procedure: (§1) These experiments were carried out to test the phytotoxic effects of HMTBA on cucurbit (cucumber), strawberry, pepper, and lettuce target crops. Young plants of Jackson Classic variety cucumber, Tango variety head lettuce, Compadre variety bell pepper, and Festival variety strawberry were grown under standard greenhouse conditions. One week-post planting cucumber and pepper plants, three week old lettuce, and four month old strawberry plants were treated.
(§2) Foliar sprays for HMTBA dilutions at 0.01, 0.1, 0.2 and 1.0% ai/v were applied twice per week for two weeks (total of four applications).
(§3) Height and width for each plant was measured (centimeters) for indication of growth changes between treated and untreated plants. Phytotoxicity ratings were taken weekly on a 0-10 scale, where 0 indicates no crop injury and 10 is damage (yellowing, scarring, wilting, necrosis, death) to the total plant from the treatment.
(§4) Area Under Disease Progress Curve (AUDPC), Abbot's formulation for percent control and all statistics were analyzed using ANOVA mean comparison with LSD test and a=0.05. Bartlett's test for homogeneity of variances was used to determine the need for data transformations. Letters in tables represent means separation significant and 0.05.

[5] = test system: lettuce; conditions: in vivo
Procedure: as §1, §2, §3, §4

[6] = test system: pepper; conditions: in vivo
Procedure: as §1, §2, §3, §4

[7] = test system: strawberry; conditions: in vivo
Procedure: as §1, §2, §3, §4

CO/C=C(/C(=O)OC)c1ccccc1Oc1cc(Oc2ccccc2C#N)ncn1 [Azoxystrobin, azoxystrobin]
P. xanthii % Control ([1]; Azoxystrobin 0.00001% ai/v): 17.66% de
Pest Severity Score 0-4 ([1]; Azoxystrobin 0.00001% ai/v): 2.67 ab
P. xanthii % Control ([1]; Azoxystrobin 0.0001% ai/v): 44.23% c
Pest Severity Score 0-4 ([1]; Azoxystrobin 0.0001% ai/v): 1.75 c
P. xanthii % Control ([1]; Azoxystrobin 0.1% ai/v): 97.62% a
Pest Severity Score 0-4 ([1]; Azoxystrobin 0.1% ai/v): 0.08 e

O=C1C2CC=CCC2C(=O)N1SC(Cl)(Cl)Cl (stereo not shown) [Captan, captan]
B. cinerea Mycelial Growth % Control ([2]; Captan 0.001% ai/v): 21.05% cd
B. cinerea Mycelial Growth Diameter (cm) ([2]; Captan 0.001% ai/v): 1.68 bc cm
B. cinerea Mycelial Growth % Control ([2]; Captan 0.01% ai/v): 53.68% b
B. cinerea Mycelial Growth Diameter (cm) ([2]; Captan 0.01% ai/v): 0.97 cm·days
B. cinerea Mycelial Growth % Control ([2]; Captan 1% ai/v): 96.81% a
B. cinerea Mycelial Growth Diameter (cm) ([2]; Captan 1% ai/v): 0.07 e cm

CSCCC(O)C(=O)O (stereo not shown) [HMTBA, 2-hydroxy-4(methylthio)butanoic acid]
P. xanthii % Control ([1]; 0.1% HMTBA): 4.46% ef
Pest Severity Score 0-4 ([1]; 0.1% HMTBA): 3.17 a
B. cinerea Mycelial Growth % Control ([2]; 0.1% HMTBA): 10.08% de
B. cinerea Mycelial Growth Diameter (cm) ([2]; 0.1% HMTBA): 2.03 ab cm
F. graminiearum % Control ([3]; 0.1% HMTBA): 4.93% ef
Spore Diameter (cm) ([3]; 0.1% HMTBA): 1.47 a cm
phytotoxic effects [4]: no phytotoxic effects were recorded
plant growth (height and width) [4]: unchanged from the untreated check
phytotoxic effects [5]: no phytotoxic effects were recorded
plant growth (height and width) [5]: unchanged from the untreated check
Pepper Phytotoxicity Rating (0-10) ([6]; Compadre variety, pepper): 0.0 a
phytotoxic effects [6]: no phytotoxic effects were recorded
plant growth (height and width) [6]: unchanged from the untreated check
Strawberry Phytotoxicity Rating (0-10) ([7]; Festival variety, strawberry): 0.0 a
phytotoxic effects [7]: no phytotoxic effects were recorded
plant growth (height and width) [7]: unchanged from the untreated check

CC1(C)CCC(Cc2ccc(Cl)cc2)C1(O)Cn1cncn1 (stereo not shown) [Metconazole, metconazole]
F. graminiearum % Control ([3]; Metconazole 0.001% ai/v): 27.80% cde
Spore Diameter (cm) ([3]; Metconazole 0.001% ai/v): 1.00 b cm
F. graminiearum % Control ([3]; Metconazole 0.01% ai/v): 66.98% ab
Spore Diameter (cm) ([3]; Metconazole 0.01% ai/v): 0.50 cd cm
F. graminiearum % Control ([3]; Metconazole 1% ai/v): 93.08% a
Spore Diameter (cm) ([3]; Metconazole 1% ai/v): 0.17 cm·days
